Source: patent US6548549B1, “Acylaminosalicylic acid amides and their uses as pesticides” (Bayer Aktiengesellschaft, priority 1995, dated 2003)

Experiments:
Botrytis cinerea = assay: Botrytis test (beans)/protective; type: in vivo; details: protective, 500 ppm active compound, lesion size 3 days after inoculation
Method: Botrytis Test (Beans)/Protective Solvent: 4.7 parts by weight of acetone Emulsifier: 0.3 part by weight of alkylaryl polyglycol ether To produce a suitable preparation of active compound, 1 part by weight of active compound is mixed with the stated amounts of solvent and emulsifier, and the concentrate is diluted with water to the desired concentration. To test for protective activity, young plants are sprayed with the preparation of active compound. After the spray coating has dried on, 2 small pieces of agar covered with Botrytis cinerea are placed on each leaf. The inoculated plants are then placed in a darkened humid chamber at 20° C. 3 days after the inoculation, the size of the lesions on the leaves is evaluated.

Sphaerotheca fuliginea = assay: Sphaerotheca test (cucumber)/protective; type: in vivo; details: protective, 100 ppm active substance, evaluation 10 days after inoculation
Method: Sphaerotheca Test (Cucumber)/Protective Solvent: 4.7 parts by weight of acetone Emulsifier: 0.3 part by weight of alkylaryl polyglycol ether To produce a suitable preparation of active compound, 1 part by weight of active compound is mixed with the stated amounts of solvent and emulsifier, and the concentrate is diluted with water to the desired concentration. To test for protective activity, young plants are sprayed with the preparation of active compound. After the spray coating has dried on, the plants are dusted with conidia of the fungus Sphaerotheca fuliginea. The plants are then placed in a greenhouse at 23 to 24° C. and at a relative atmospheric humidity of about 75%. Evaluation is carried out 10 days after the inoculation.

Pyricularia oryzae = type: in vivo; details: rice, protective, active compound concentration 0.05%, evaluation 4 days after inoculation
[1] = system: Pseudocercosporella herpotrichoides; assay: Pseudocercosporella herpotrichoides test (wheat)/protective; type: in vivo; details: protective, application rate 250 g/ha, evaluation 21 days after inoculation
Method: Pseudocercosporella herpotrichoides Test (Wheat)/Protective Solvent: 10 parts by weight of N-methyl-pyrrolidone Emulsifier: 0.6 part by weight of alkylaryl polyglycol ether To produce a suitable preparation of active compound, 1 part by weight of active compound is mixed with the stated amounts of solvent and emulsifier, and the concentrate is diluted with water to the desired concentration. To test for protective activity, young plants are sprayed with the preparation of active compound at the rate of application shown. After the spray coating has dried on, the stem base of the plants is inoculated with spores of Pseudocercosporella herpotrichoides. […] Evaluation is carried out 21 days after the inoculation.

[2] = system: larvae of the green rice leafhopper (Nephotettix cincticeps); assay: Nephotettix test; type: in vivo; details: rice seedlings dipped, active compound concentration 0.001%, after 7 days
Method: Nephotettix Test Solvent: 7 parts by weight of dimethylformamide Emulsifier: 1 part by weight of alkylaryl polyglycol ether To produce a suitable preparation of active compound, 1 part by weight of active compound is mixed with the stated amount of solvent and the stated amount of emulsifier, and the concentrate is diluted with water to the desired concentration. Rice seedlings (Oryza sativa) are treated by being dipped into the preparation of the active compound of the desired concentration and populated with larvae of the green rice leafhopper (Nephotettix cincticeps) while the seedlings are still moist. After the specified period of time, the destruction in % is determined. 100% means that all the leafhoppers have been killed; 0% means that none of the leafhoppers have been killed.

[3] = system: mustard beetle larvae (Phaedon cochleariae); assay: Phaedon larvae test; type: in vivo; details: cabbage leaves dipped, active compound concentration 0.01%, after 7 days
Method: (§1) Phaedon Larvae Test Solvent: 7 parts by weight of dimethylformamide Emulsifier: 1 part by weight of alkylaryl polyglycol ether To produce a suitable preparation of active compound, 1 part by weight of active compound is mixed with the stated amount of solvent and the stated amount of emulsifier, and the concentrate is diluted with water to the desired concentration. Cabbage leaves (Brassica oleracea) are treated by being dipped into the preparation of the active compound of the desired concentration and are populated with mustard beetle larvae (Phaedon cochleariae) while the leaves are still moist. After the specified period of time, the destruction in % is determined. 100% means that all the beetle larvae have been killed; 0% means that none of the beetle larvae have been killed.

[4] = system: caterpillars of the fall armyworm Spodoptera frugiperda; assay: Spodoptera test; type: in vivo; details: cabbage leaves dipped, concentration 0.1%, after 7 days
Method: as §1, with “Spodoptera” for “Phaedon Larvae”, “[…]” for “weight of dimethylformamide”, “caterpillars of the fall armyworm Spodoptera frugiperda” for “mustard beetle larvae (Phaedon cochleariae)”, “activity” for “destruction”, “caterpillars” for “beetle larvae”

## O=CNc1cccc(C(=O)Nc2ccc(-c3ccccc3)cc2)c1O [Example 2, 3-formamido-2-hydroxy-N-(4-phenylphenyl)-benzamide]
Botrytis cinerea
  efficacy: 90%
other
  melting point: 190 °C

## CC(NC(=O)c1cccc(NC=O)c1O)c1ccc(F)cc1 (stereo not drawn) [Example 3, 3-formamido-2-hydroxy-N-[1-(4-fluorphenyl)-ethyl)-benzamide]
Botrytis cinerea
  efficacy: 90%

## O=CNc1cccc(C(=O)Nc2ccc(Oc3ccc(Cl)cc3)c(Cl)c2)c1O [Example 4]
Botrytis cinerea
  efficacy: 90%

## O=CNc1cccc(C(=O)Nc2ccc(Oc3cccc(C(F)(F)F)c3)cc2)c1O [Example 5]
Sphaerotheca fuliginea
  efficacy: over 80%
Pyricularia oryzae
  efficacy: over 80%
[1]
  efficacy: over 80%
Botrytis cinerea
  efficacy: 90%

## COc1cccc(C(C)NC(=O)c2cccc(NC=O)c2O)c1 (stereo not drawn) [Example 10]
Botrytis cinerea
  efficacy: 90%

## CC(NC(=O)c1cccc(NC=O)c1O)c1ccc(Cl)cc1Cl (stereo not drawn) [Example 15]
Botrytis cinerea
  efficacy: 90%

## CCc1ccc(C(C)NC(=O)c2cccc(NC=O)c2O)cc1 (stereo not drawn) [Example 16]
Botrytis cinerea
  efficacy: 90%

## O=CNc1cccc(C(=O)NCc2ccc(F)cc2)c1O [Example 35]
[2]
  destruction: 100%

## O=CNc1cccc(C(=O)NCc2cccc(C(F)(F)F)c2)c1O [Example 39]
[2]
  destruction: 100%

## CCc1ccc(-c2ccc(CCNC(=O)c3cccc(NC=O)c3O)cc2)cc1 [Example 47]
[3]
  destruction: 100%
[4]
  destruction rate: 85%

## CC(NC(=O)c1cccc(NC=O)c1O)C1CC=CCC1 (stereo not drawn) [Example 71]
[2]
  destruction: 100%

## CC(NC(=O)c1cccc([N+](=O)[O-])c1OCc1ccccc1)c1cccc(C(F)(F)F)c1 (stereo not drawn) [Example V-34]
[3]
  destruction: 100%

## O=C(Nc1ccc(-c2ccccc2)cc1)c1cccc([N+](=O)[O-])c1O [IV-a-1, 3-nitro-2-hydroxy-N-(4-phenyl-phenyl)-benzamide]
other
  melting point: 152 °C
